Measured values: ChEMBL document CHEMBL5226354, “The Medicinal Chemistry and Therapeutic Potential of LRH-1 Modulators” (J Med Chem, 2021)

Key:
[1] = target: T1, Nuclear receptor subfamily 5 group A member 2 (Homo sapiens, UniProt O00482); assay: Inhibition of full length LRH1 transfected in HEK293T cells incubated for 20 hrs by luciferase reporter assay; type: cell-based
[2] = target: T1, Nuclear receptor subfamily 5 group A member 2; assay: Inhibition of full length LRH1 in HEK293T cells at 10 uM incubated for 20 hrs by luciferase reporter assay relative to control; type: cell-based
[3] = target: T1, Nuclear receptor subfamily 5 group A member 2; assay: Inhibition of full length LRH1 in HEK293T cells at 550 nM incubated for 20 hrs by luciferase reporter assay relative to control; type: cell-based
[4] = target: T1, Nuclear receptor subfamily 5 group A member 2; assay: Antagonist activity at human recombinant LRH-1 LBD ([…] to 541 residues)
[5] = target: T1, Nuclear receptor subfamily 5 group A member 2; assay: Antagonist activity at human LRH-1

T1 sequence (O00482 whole entry): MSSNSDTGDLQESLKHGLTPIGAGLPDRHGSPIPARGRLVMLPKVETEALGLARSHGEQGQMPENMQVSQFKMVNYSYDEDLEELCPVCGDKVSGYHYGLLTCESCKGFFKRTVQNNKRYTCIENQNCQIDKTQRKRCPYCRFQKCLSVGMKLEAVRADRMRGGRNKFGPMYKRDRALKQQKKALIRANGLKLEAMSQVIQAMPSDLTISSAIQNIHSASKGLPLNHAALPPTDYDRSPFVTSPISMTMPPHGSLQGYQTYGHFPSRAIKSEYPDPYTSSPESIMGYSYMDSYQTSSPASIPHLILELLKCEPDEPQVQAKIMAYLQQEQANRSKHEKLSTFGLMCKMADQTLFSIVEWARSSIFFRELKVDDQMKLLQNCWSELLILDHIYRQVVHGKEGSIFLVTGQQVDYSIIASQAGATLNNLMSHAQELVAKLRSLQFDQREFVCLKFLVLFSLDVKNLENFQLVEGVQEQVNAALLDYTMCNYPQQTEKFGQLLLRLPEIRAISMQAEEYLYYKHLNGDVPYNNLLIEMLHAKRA

SMILES	IC50 [1]	IC50 [5]	further results
O=c1cc(N2CCN(c3cccc(Cl)c3)CC2)[nH]c(=O)n1C1CCCCC1	3.7 µM	–	inhibition [2]: 64%
O=c1cc(N2CCN(c3cccc(C(F)(F)F)c3)CC2)[nH]c(=O)n1C1CCCCC1	0.32 µM	–	inhibition [3]: 40%
O=C(c1ccc(OCCN2CCCCC2)cc1)c1c(-c2ccc(O)cc2)sc2c(C(=O)c3ccc(OCCN4CCCCC4)cc3)c(O)ccc12	–	–	IC50 [4]: 3.1 µM
Cc1nc(N(C)C)nc(-c2cccc(-c3ccn(CCN(C)C)n3)c2)c1C	–	6 µM	–
CC(=O)c1cccc(-c2cccc(-c3ccn(CCN4CCOCC4)n3)c2)c1	–	5 µM	–
